Target: T1, human recombinant HDAC6 (Homo sapiens, UniProt Q9UBN7)
T1 construct: purchased Calbiochem 382180
T1 sequence (Q9UBN7 1-1215): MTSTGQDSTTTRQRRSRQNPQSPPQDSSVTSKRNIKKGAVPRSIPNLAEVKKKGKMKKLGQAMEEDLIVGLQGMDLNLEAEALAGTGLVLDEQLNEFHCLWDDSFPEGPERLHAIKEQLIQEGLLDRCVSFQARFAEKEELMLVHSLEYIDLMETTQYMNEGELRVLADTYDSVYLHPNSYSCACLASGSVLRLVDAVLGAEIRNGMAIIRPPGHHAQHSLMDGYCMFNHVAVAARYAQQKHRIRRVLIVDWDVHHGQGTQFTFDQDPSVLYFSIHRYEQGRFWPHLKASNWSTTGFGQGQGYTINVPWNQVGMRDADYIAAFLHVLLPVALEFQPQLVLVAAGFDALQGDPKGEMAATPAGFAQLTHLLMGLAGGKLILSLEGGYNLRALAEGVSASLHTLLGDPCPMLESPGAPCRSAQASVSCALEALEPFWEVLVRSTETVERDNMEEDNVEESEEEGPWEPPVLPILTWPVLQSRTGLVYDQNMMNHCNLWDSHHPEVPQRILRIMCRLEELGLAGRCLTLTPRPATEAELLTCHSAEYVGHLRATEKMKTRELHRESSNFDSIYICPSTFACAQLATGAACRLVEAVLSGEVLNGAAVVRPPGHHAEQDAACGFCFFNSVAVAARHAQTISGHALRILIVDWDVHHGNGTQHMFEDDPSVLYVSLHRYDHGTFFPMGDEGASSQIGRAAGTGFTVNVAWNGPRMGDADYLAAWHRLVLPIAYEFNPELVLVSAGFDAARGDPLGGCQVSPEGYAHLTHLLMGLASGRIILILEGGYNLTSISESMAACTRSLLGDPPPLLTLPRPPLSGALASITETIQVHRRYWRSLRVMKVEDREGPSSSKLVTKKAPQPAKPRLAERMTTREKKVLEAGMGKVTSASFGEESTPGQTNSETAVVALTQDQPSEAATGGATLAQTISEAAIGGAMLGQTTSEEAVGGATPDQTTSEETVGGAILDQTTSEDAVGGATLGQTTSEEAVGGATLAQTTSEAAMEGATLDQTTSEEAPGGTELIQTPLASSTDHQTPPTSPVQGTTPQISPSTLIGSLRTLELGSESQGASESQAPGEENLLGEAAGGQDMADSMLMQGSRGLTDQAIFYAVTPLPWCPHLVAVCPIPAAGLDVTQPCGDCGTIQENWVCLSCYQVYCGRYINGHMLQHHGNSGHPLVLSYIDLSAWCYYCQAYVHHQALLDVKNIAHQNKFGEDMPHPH
Assay: HDAC6 enzyme activity inhibition assay (HDAC Fluorimetric Drug Discovery Kit)
Type: biochemical
Conditions: for HDAC6 selectivity (fold): HDAC6 over HDAC1; for IC50: human recombinant HDAC6, same protocol as HDAC1, read-out: HDAC6
Outline: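 Fluorimetric deacetylase assay: 5-fold serial compound dilutions, 0.3 μg recombinant human enzyme (HDAC1 or HDAC6, same protocol), 10 μM Fluor de Lys-SIRT1 substrate, 60 min at 30 °C. Signal developed 30 min, measured at 360/460 nm; IC50 values derived.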

Row | Structure (SMILES) | HDAC6 selectivity (fold) | IC50
1 | O=C(N1CCS(=O)(=O)CC1)N(Cc1ccc(-c2nnc(C(F)F)o2)cc1)c1ccccc1F [Compound 21448, N-(4-(5-(difluoromethyl)-1,3,4-oxadiazol-2-yl)benzyl)-N-(2-fluorophenyl)thiomorpholine-4-carboxamide 1,1-dioxide] | 278 fold | 36 nM
2 | O=C(N1CCS(=O)(=O)CC1)N(Cc1ccc(-c2nnc(C(F)(F)F)o2)cc1)c1ccccc1C(F)(F)F [Compound 21449, N-(4-(5-(trifluoromethyl)-1,3,4-oxadiazol-2-yl)benzyl)-N-(2-(trifluoromethyl)phenyl)thiomorpholine-4-carboxamide 1,1-dioxide] | 7 fold | 1530 nM
3 | O=C(N1CCS(=O)(=O)CC1)N(Cc1ccc(-c2nnc(C(F)F)o2)cc1)c1ccccc1C(F)(F)F [Compound 21450, N-(4-(5-(difluoromethyl)-1,3,4-oxadiazol-2-yl)benzyl)-N-(2-(trifluoromethyl)phenyl)thiomorpholine-4-carboxamide 1,1-dioxide] | 19 fold | 530 nM
4 | Cc1ccccc1N(Cc1ccc(-c2nnc(C(F)(F)F)o2)cc1)C(=O)N1CCS(=O)(=O)CC1 [Compound 21451, N-(o-tolyl)-N-(4-(5-(trifluoromethyl)-1,3,4-oxadiazol-2-yl)benzyl)thiomorpholine-4-carboxamide 1,1-dioxide] | 30 fold | 333 nM
5 | Cc1ccccc1N(Cc1ccc(-c2nnc(C(F)F)o2)cc1)C(=O)N1CCS(=O)(=O)CC1 [Compound 21452, N-(4-(5-(difluoromethyl)-1,3,4-oxadiazol-2-yl)benzyl)-N-(o-tolyl)thiomorpholine-4-carboxamide 1,1-dioxide] | 93 fold | 108 nM
6 | COc1ccc(N(Cc2ccc(-c3nnc(C(F)F)o3)cc2)C(=O)N2CCS(=O)(=O)CC2)cc1 [Compound 21453, N-(4-(5-(difluoromethyl)-1,3,4-oxadiazol-2-yl)benzyl)-N-(4-methoxyphenyl)thiomorpholine-4-carboxamide 1,1-dioxide] | 85 fold | 117 nM
7 | COc1ccc(N(Cc2ccc(-c3nnc(C(F)(F)F)o3)cn2)C(=O)N2CCS(=O)(=O)CC2)cc1 [Compound 21454, N-(4-methoxyphenyl)-N-((5-(5-(trifluoromethyl)-1,3,4-oxadiazol-2-yl)pyridin-2-yl)methyl)thiomorpholine-4-carboxamide 1,1-dioxide] | 94 fold | 106 nM
8 | COc1ccc(N(Cc2ccc(-c3nnc(C(F)F)o3)cn2)C(=O)N2CCS(=O)(=O)CC2)cc1 [Compound 21455, N-((5-(5-(difluoromethyl)-1,3,4-oxadiazol-2-yl)pyridin-2-yl)methyl)-N-(4-methoxyphenyl)thiomorpholine-4-carboxamide 1,1-dioxide] | 294 fold | 34 nM
9 | O=C(N1CCS(=O)(=O)CC1)N(Cc1ccc(-c2nnc(C(F)(F)F)o2)cc1)c1cccc(C(F)(F)F)n1 [Compound 21456, N-(4-(5-(trifluoromethyl)-1,3,4-oxadiazol-2-yl)benzyl)-N-(6-(trifluoromethyl)pyridin-2-yl)thiomorpholine-4-carboxamide 1,1-dioxide] | 17 fold | 578 nM
10 | O=C(N1CCS(=O)(=O)CC1)N(Cc1ccc(-c2nnc(C(F)F)o2)cc1)c1cccc(C(F)(F)F)n1 [Compound 21457, N-(4-(5-(difluoromethyl)-1,3,4-oxadiazol-2-yl)benzyl)-N-(6-(trifluoromethyl)pyridin-2-yl)thiomorpholine-4-carboxamide 1,1-dioxide] | 53 fold | 190 nM
11 | CC(C)(C)c1ccc(N(Cc2ccc(-c3nnc(C(F)(F)F)o3)cc2)C(=O)N2CCS(=O)(=O)CC2)cc1 [Compound 21458, N-(4-(tert-butyl)phenyl)-N-(4-(5-(trifluoromethyl)-1,3,4-oxadiazol-2-yl)benzyl)thiomorpholine-4-carboxamide 1,1-dioxide] | 1 fold | –
12 | CC(C)(C)c1ccc(N(Cc2ccc(-c3nnc(C(F)F)o3)cc2)C(=O)N2CCS(=O)(=O)CC2)cc1 [Compound 21459, N-(4-(tert-butyl)phenyl)-N-(4-(5-(difluoromethyl)-1,3,4-oxadiazol-2-yl)benzyl)thiomorpholine-4-carboxamide 1,1-dioxide] | 1 fold | –
13 | CC(C)(C)c1ccc(N(Cc2ccc(-c3nnc(C(F)(F)F)o3)cc2F)C(=O)N2CCS(=O)(=O)CC2)cc1 [Compound 21460, N-(4-(tert-butyl)phenyl)-N-(2-fluoro-4-(5-(trifluoromethyl)-1,3,4-oxadiazol-2-yl)benzyl)thiomorpholine-4-carboxamide 1,1-dioxide] | 1 fold | –
14 | CC(C)(C)c1ccc(N(Cc2ccc(-c3nnc(C(F)F)o3)cc2F)C(=O)N2CCS(=O)(=O)CC2)cc1 [Compound 21461, N-(4-(tert-butyl)phenyl)-N-(4-(5-(difluoromethyl)-1,3,4-oxadiazol-2-yl)-2-fluorobenzyl)thiomorpholine-4-carboxamide 1,1-dioxide] | 14 fold | 731 nM
15 | O=C(N1CCOCC1)N(Cc1ccccc1)Cc1ccc(-c2nnc(C(F)(F)F)o2)cc1 [Compound 21462, N-benzyl-N-(4-(5-(trifluoromethyl)-1,3,4-oxadiazol-2-yl)benzyl)morpholine-4-carboxamide] | 7 fold | 1420 nM
16 | O=C(N1CCOCC1)N(Cc1ccc(-c2nnc(C(F)(F)F)o2)cc1)Cc1cccnc1 [Compound 21463, N-(pyridin-3-ylmethyl)-N-(4-(5-(trifluoromethyl)-1,3,4-oxadiazol-2-yl)benzyl)morpholine-4-carboxamide] | 2 fold | 4530 nM
17 | O=C(N1CCOCC1)N(Cc1ccncc1)Cc1ccc(-c2nnc(C(F)(F)F)o2)cc1 [Compound 21464, N-(pyridin-4-ylmethyl)-N-(4-(5-(trifluoromethyl)-1,3,4-oxadiazol-2-yl)benzyl)morpholine-4-carboxamide] | 6 fold | 1730 nM
18 | CN1CCN(C(=O)N(Cc2ccc(-c3nnc(C(F)F)o3)cc2F)c2cccc(Br)c2)CC1 [Compound 21465, N-(3-bromophenyl)-N-(4-(5-(difluoromethyl)-1,3,4-oxadiazol-2-yl)-2-fluorobenzyl)-4-methylpiperazine-1-carboxamide] | 333 fold | 30 nM
19 | CN1CCN(C(=O)N(Cc2ccc(-c3nnc(C(F)F)o3)cc2F)c2ccc(Br)cc2)CC1 [Compound 21466, N-(4-bromophenyl)-N-(4-(5-(difluoromethyl)-1,3,4-oxadiazol-2-yl)-2-fluorobenzyl)-4-methylpiperazine-1-carboxamide] | 128 fold | 78 nM
20 | CN1CCN(C(=O)N(Cc2ccc(-c3nnc(C(F)F)o3)cc2F)c2cccc(Cl)c2)CC1 [Compound 21467, N-(3-chlorophenyl)-N-(4-(5-(difluoromethyl)-1,3,4-oxadiazol-2-yl)-2-fluorobenzyl)-4-methylpiperazine-1-carboxamide] | 323 fold | 31 nM
21 | CN1CCN(C(=O)N(Cc2ccc(-c3nnc(C(F)F)o3)cc2F)c2ccc(Cl)cc2)CC1 [Compound 21468, N-(4-chlorophenyl)-N-(4-(5-(difluoromethyl)-1,3,4-oxadiazol-2-yl)-2-fluorobenzyl)-4-methylpiperazine-1-carboxamide] | 159 fold | 63 nM

Reference: patent publication US10717716B2, “1,3,4-oxadiazole derivative compounds as histone deacetylase 6 inhibitor, and the pharmaceutical composition comprising the same” (Chong Kun Dang Pharmaceutical Corp., priority 2015, dated 2020)
